Here are results for 18 compounds from patent US20100249068A1, “S[…] NUCLEOTIDE ANALOGS” (Alios BioPharma, Inc., priority 2009, published 2010).

Each structure is given as a SMILES string.

In the first test the test system is stably HCV RNA-replicating cell line, AVA5 (genotype 1b, subgenomic replicon). As to the kind of experiment: HCV replicon assay (intracellular HCV RNA levels by blot hybridization, normalized to β-actin RNA). Format: cell-based. The settings on record: Hepatitis C virus; AVA5 cells, HCV genotype 1b subgenomic replicon; compounds added daily for three days; HCV RNA assessed 72 hours after treatment; read-out: Activity (EC50). On the procedure:
Antiviral activity of test compounds was assessed (Okuse, et al., Antivir. Res. 2005 65:23) in the stably HCV RNA-replicating cell line, AVA5 (genotype 1b, subgenomic replicon, Blight, et al., Sci. 2000 290:1972). Compounds were added to dividing cultures daily for three days. […] Intracellular HCV RNA levels and cytotoxicity were assessed 72 hours after treatment.
Quadruplicate cultures for HCV RNA levels and cytoxicity (on 96-well plates) were used. A total of 12 untreated control cultures, and triplicate cultures treated with α-interferon (concentrations of: 10 IU/mL, 3.3 IU/mL, 1.1 IU/mL and 0.37 IU/mL) and 2′C-Me-C (concentrations of: 30 μM, 10 μM, 3.3 μM and 1.1 μM) served as assay controls.
Intracellular HCV RNA levels were measured using a conventional blot hybridization method, in which HCV RNA levels are normalized to the levels of β-actin RNA in each individual culture (Okuse, et al., Antivir. Res. 2005 65:23). Cytotoxicity was measured using an established neutral red dye uptake assay (Korba and Gerin, Antivir. Res. 1992 19:55; Okuse, et al., Antivir. Res. 2005 65:23). HCV RNA levels in the treated cultures are expressed as a percentage of the mean levels of RNA detected in untreated cultures. The absorbance of the internalized dye at […] (A510) was used for quantitative analysis.
Compounds were dissolved in 100% tissue culture grade DMSO (Sigma, Inc.) at 10 mM. Aliquots of test compounds sufficient for one daily treatment were made in individual tubes and all material was stored at −20° C. For the test, the compounds were suspended into culture medium at room temperature, and immediately added to the cell cultures. Compounds were analyzed separately in two groups with separate assay controls. The concentrations of the test compounds were run at concentrations of 10 μM, 3.3 μM, 1.1 μM and 0.37 μM. CC50, EC50 and EC90 were determined using the concentration response curve.
Background: Replicon systems follow genome replication, usually without infectious particles.
By EC50 is commonly meant the concentration needed to bring the measured effect to its halfway point. In the case of `C[C@@H](O)[C@H]1O[C@@H](n2cnc3c(N)ncnc32)[C@](C)(O)[C@@H]1O`, the EC50 was below 30 µM.

As for `CC(=O)Nc1ccn([C@@H]2O[C@H]([C@H](C)OC(C)=O)[C@@H](OC(C)=O)C2(F)F)c(=O)n1`, the EC50 was below 5 µM.

In the case of `C[C@H](O)[C@H]1O[C@@H](n2ccc(N)nc2=O)[C@H](F)[C@@H]1O`, the EC50 was below 30 µM.

In the case of `CC(=O)O[C@@H](C)[C@H]1O[C@@H](n2ccc(N)nc2=O)C(F)(F)[C@@H]1OC(C)=O`, the EC50 was below 5 µM.

On to `CC(O)[C@H]1O[C@@H](n2cnc3c(=O)[nH]c(N)nc32)[C@H](O)[C@@H]1O` (stereo partly drawn), for which the EC50 is below 200 µM.

For `CC(OC(=O)c1ccccc1)[C@H]1O[C@@H](N2C=CC(N)NC2=O)[C@](C)(OC(=O)c2ccccc2)[C@@H]1OC(=O)c1ccccc1` (stereo partly drawn), the EC50 was below 30 µM.

Consider `C[C@H](O)[C@H]1O[C@@H](n2ccc(N)nc2=O)C(F)(F)[C@@H]1O`, for which the EC50 is below 5 µM.

Consider `CC(O)[C@H]1O[C@@H](n2ccc(N)nc2=O)[C@@H](F)[C@@H]1O` (stereo partly drawn), for which the EC50 is below 30 µM.

With `CCC(=O)O[C@@H](C)[C@H]1O[C@@H](n2ccc(N)nc2=O)C(F)(F)[C@@H]1OC(=O)CC`, the EC50 is below 5 µM.

For `C[C@@H](O)[C@H]1O[C@@H](n2ccc(N)nc2=O)[C@@H](O)[C@@H]1O`, the EC50 is below 5 µM.

On to `CCC(=O)O[C@@H](C)[C@H]1O[C@@H](n2ccc(N)nc2=O)C(F)(F)[C@@H]1O`, for which the EC50 is below 5 µM.

For the compound `C[C@@H](O)[C@H]1O[C@@H](n2ccc3c(N)ncnc32)[C@H](O)[C@@H]1O`, the EC50 was below 30 µM.

As to `C[C@H](O)[C@H]1O[C@@H](n2ccc(N)nc2=O)[C@@H](O)[C@@H]1O`, the EC50 is below 200 µM.

Turning to `CC(=O)O[C@@H](C)[C@H]1O[C@@H](n2ccc(N)nc2=O)C(F)(F)[C@@H]1O`, the EC50 was below 5 µM.

For `COC(=O)[C@@H](C)N[P@](=O)(Oc1ccccc1)O[C@H](C)[C@H]1O[C@@H](n2cnc3c(N)ncnc32)[C@H](O)[C@@H]1O`, the EC50 was below 5 µM.

Regarding `C[C@@H](O)[C@H]1O[C@@H](n2ccc(N)nc2=O)C(F)(F)[C@@H]1O`, the EC50 was below 5 µM.

Still in this test, the particulars now being: Hepatitis C virus; AVA5 cells, HCV genotype 1b subgenomic replicon; compounds added daily for three days; HCV RNA assessed 72 hours after treatment; read-out: EC50.
As for `CO[C@@H]1[C@H](O)[C@@H](CO)O[C@H]1n1ccc(N)nc1=O` [Compound 8a, 2′-O-methylcytidine, reference compound], the EC50 was in the range of 1 to 10 µM.

Consider `C[C@H](O)C1O[C@@H](n2cnc3c(N)ncnc32)[C@](C)(O)[C@@H]1O` (stereo in doubt) [Compound 9, 2′,5′-C-dimethyladenosine], for which the EC50 was 1 to 10 µM.
